Here are results for eight molecules from patent US8343539B2, “Compounds that bind α5β1 integrin and methods of use” (Regents of the University of Minnesota, priority 2006, dated 2013).

Entries after “also recorded” stand apart in the source; their conditions may differ. Primed or numbered codes have the meaning given here. Where no end group is shown, it is not given here. [ ]: non-standard residue; d: D form. (C16)2‑Glu‑C2″ = N-terminal tail: two C16 chains, glutamic acid linker, -(CH2)2- spacer; (C16)2‑Glu‑C2 = lipid tail; Abu = CC[C@H](N)C(=O)O

Assay [1] deals with HUVECs. Briefly: Extracellular fibronectin production by HUVECs (Example 1). The conditions noted are these: for Fibronectin production by adhered HUVECs: 12 and 24 hours; for Fibronectin secretion by adhered HUVECs: after 48 hours. It counts as cell-based, human. As to the method: (§1) Cell spreading and fibronectin production experiments: Surface transferring, cell seeding, and incubation were done in the same manner as in the adhesion experiment, with a cell density of 497 cells/mm^2, and incubation times of 1, 12, 24, 48, and 72 hour. At the end of each incubation, the surfaces were removed, washed with […] of PBS, and fixed in 1 ml of 4% paraformaldehyde (Sigma) in PBS for 15 minutes at 37° C., 5% CO2. After washing with PBS, surfaces were first labeled for secreted fibronectin: surfaces were subjected to a blocking solution (0.1% BSA in PBS) for 30 minutes, incubated for 1 hour with a primary antibody specific for secreted fibronectin (mouse anti-human fibronectin (P1H11) monoclonal antibody (Chemicon Int.) at a 1:500 dilution in blocking solution, and then for 45 minutes with a secondary antibody (IgG fluorescein (FITC) conjugated antibody; Chemicon Int.) at a 1:200 dilution in PBS. As a final step, cell membranes and nuclei were stained using the Image-iT™ LIVE Plasma Membrane and Nuclear Labeling Kit following the manufacturer's protocol for labeling fixed cells (Molecular Probes). After final washing, surfaces were mounted onto glass slides and stored at 4° C. protected from light. An inverted fluorescent microscope (Nikon Eclipse TE200 with Pixcell II LCM) was used for imaging. Fibronectin production was assessed visually, by comparing 10-20 fluorescence images from two samples for each substrate (two independent experiments performed at different days). Cell spreading was quantified from two samples per substrate (two independent experiments performed at different days) by measuring cell area with the NIH imaging software.

A further assay has as its target T1, integrin αvβ3 (Homo sapiens, UniProt P05106+P06756).
T1 construct: HUVECs were prepared and counted as described in the cell adhesion protocol; endogenous in cells; host or cells: HUVEC (human umbilical vein endothelial cells)
Briefly: Adhesion blocking with anti-integrin αvβ3 antibody (LM609). The format is cell-based. The conditions noted are these: anti-αvβ3 antibody 20 μg/ml, 1 hour, HUVECs 249 cells/mm^2.

Assay [2] concerns HUVECs. Briefly: HUVEC spreading on substrates (cell area). It counts as cell-based, human. The conditions noted are these: for HUVEC spreading (cell area): 1-24 hours; for HUVEC spreading, rank among surfaces: all times examined, 1-72 hours. As for the experimental part:
as §1

Assay [3] has as its system HUVECs. Briefly: Actin cytoskeleton and focal adhesion staining. The format is cell-based, human. The settings on record: for Actin fibers and focal adhesion points: 12 hours. As for the experimental part: Actin cytoskeleton and focal adhesion staining: Surface transferring, cell seeding, incubation, and fixing were done as described above. Staining for the actin cytoskeleton, focal adhesions, and nucleus of attached cells was done using the Actin Cytoskeleton and Focal Adhesion Staining Kit following the manufacturer's protocol (Chemicon Int.) and using 1:350 dilution for anti-vinculin antibody, 1:200 for the secondary antibody, approximately 1:1000 dilution (equivalent to 1 unit/surface) for TRITC-conjugated phalloidin and 1:1000 for DAPI. After washing, surfaces were mounted onto glass slides and stored at 4° C. protected from light. A confocal microscope (BIORAD Multiphoton Confocal 1024) was used for imaging.

Assay [4] relates to HUVECs. Briefly: HUVEC adhesion on LB membranes of peptide-amphiphiles (Example 1). The format is cell-based, human. The conditions noted are these: 1-72 hours, no serum. The source says: Surface preparation: Peptide-amphiphiles, listed in Table 1, were synthesized as described in the literature (Berndt et al., J. Am. Chem. Soc., 1995; 117:9515-9522). Langmuir-Blodgett (LB) membranes constructed from peptide-amphiphiles were deposited onto 15 mm mica disks as described elsewhere (Kokkoli et al., Langmuir, 2004; 20:2397-2404). Shortly before cell assays, the LB films were transferred into 24-well plates containing 1× phosphate buffered saline (PBS) solution (Mediatech), without exposing surfaces to air, as they rearrange to form multilayers (Hansma et al., Method. Cell Biol., 2002; 69:163-193). After equilibrating for 5-10 minutes, PBS was exchanged with 1 ml of MCDB-131 basal media (Sigma) supplemented with 0.1% bovine serum albumin (BSA) (Sigma) and antibiotics (Sigma) (2.5 μg/ml gentamicin, 2.5 μg/ml amphotericin B, 50 U/ml penicillin, and 50 μg/ml streptomycin), referred to as 0.1% BSA media. Surfaces were equilibrated at 37° C., 5% CO2 for 30-60 minutes before adding the cells. Human fibronectin-coated round coverslips (FN) 22 mm in diameter (BD Biosciences) were put into 12-well plates and 2 ml of 0.1% BSA media was added to each well. Surfaces were equilibrated for 30-60 minutes at 37° C., 5% CO2.
Cell culture: Human umbilical vein endothelial cells, HUVECs, (Cambrex Corporation) were cultured in MCDB-131 containing 20% fetal bovine serum (FBS) (Atlas Biologicals) at 37° C., 5% CO2. Other nutrients and antibiotics supplementing the media were added based on an optimal HUVEC proliferation study (Terramani et al., In Vitro Cell Dev. Biol.—Animal, 2000; 36:125-132). Media was changed in the culture flasks every other day. Cells used for adhesion and imaging studies were in passages 3-4.
Cell adhesion experiments: After cells became 90% confluent they were washed with PBS, trypsinized with 0.25% Trypsin-EDTA (Cambrex Corporation), neutralized with MCDB-131 with 2% FBS, and spun at 1000 rpm for 10 minutes. The supernatant was removed and the cell pellet was resuspended in 0.1% BSA media. Cells were counted with a hemocytometer and seeded onto LB and FN surfaces at a density of 497 cells/mm^2. Surfaces were incubated with cells in 0.1% BSA media at 37° C., 5% CO2, for 1, 4, 12, 24, 48, and 72 hours. Cell adhesion was quantified using the CyQuant Cell Proliferation Assay Kit, with a dye that binds to cellular nucleic acids, following the manufacturer's protocol (Molecular Probes). A calibration standard curve was created for each experiment. The plates were read on a SpectraMAX GeminiXS (Molecular Devices).

In assay [5] the test system is HUVECs. The experiment in a line: HUVEC adhesion timed experiments on LB membranes (Example 2). It counts as cell-based, human. As to the method:
Surface preparation: Each peptide-amphiphile was used to form homogenous LB membranes as in previous work (Kokkoli Langmuir 2004; 20:2397-2404), except that both the water and 15 mm mica disks used had been autoclaved for sterility. All depositions were done at a surface pressure between 41 and 47 mN/m, well below the collapse pressure and in the liquid-condensed or solid phase. Approximately 90 minutes before cells were seeded on the LB films to begin cell adhesion experiments, mica surfaces were transferred into 1× phosphate buffered saline (PBS), with particular care taken to ensure films were not exposed to air. After 5-10 minutes of equilibration, surfaces were transferred into 24-well plates containing a supplemented MCDB-131 basal media (Sigma), as described in Example 1. Following surface transfer, 24-well plates were moved to a 37° C., 5% CO2 incubator for 45-60 minutes. As a control, 22 mm diameter human fibronectin-coated coverslips (BD Biosciences), referred to as FN, were put into 12-well plates, covered with 2 ml of the supplemented media, and also incubated for 45-60 minutes.
Cell culture: Human umbilical vein endothelial cells, HUVECs (Cambrex Corporation), were cultured as described previously (see Example 1). Only cells from passage 3 were used in all studies.
Cell adhesion experiments: Flasks of HUVECs with at least 90% confluency were washed with 1×PBS, trypsinized with 0.25% Trypsin-EDTA (Fisher Scientific), and neutralized with 2% fetal bovine serum in MCDB-131 basal media. The suspended cells from all flasks were placed in one 50 ml centrifuge tube and centrifuged at 1000 rpm for 5 minutes. The media was removed and the cell pellet was resuspended in the supplemented media described above. A hemocytometer was used to count the cells and then 497 cells/mm^2 were seeded onto both LB and FN surfaces. Surfaces were incubated with cells at 37° C., 5% CO2 for 1, 4, or 12 hours. Cell adhesion following these times was determined using the CyQuant cell proliferation assay kit (Molecular Probes), which measures the fluorescence of a cellular nucleic acid-binding dye using the SpectraMAX GeminiXS plate reader (Molecular Devices). Standard calibration curves were created within each experiment for both 12- and 24-well plates.

The subject of assay [6] is HUVECs. Briefly: Fibronectin production staining (Example 2). The format is cell-based, human. The settings on record: 12 hours. As for the experimental part: Fibronectin production staining: Surface preparation, transfer, and cellular work were all done as described in the previous methods. Only surfaces incubated with cells for 12 hours were stained. The staining protocol, involving a primary antibody for secreted fibronectin (Chemicon), a FITC-conjugated secondary antibody (Chemicon), and the Image-iT LIVE plasma membrane and nuclear labeling kit (Molecular Probes), was done as previously described in Example 1. A single photon confocal microscope (Olympus FluoView FV1000) was used for imaging. Two slides per substrate were prepared each during 2 separate experiments and each slide was imaged 2-4 times. The final images chosen were all taken from one experiment for consistency, but were representative of the images obtained from both experiments.

Assay [7] has as its target T2, mouse α5β1 integrin on CT26.WT cells (mouse, UniProt P11688 45-1053; P09055 21-798).
T2 construct: whole, on cells; Endogenous on mouse colon carcinoma cells; also called integrin α5β1 expressing CT26.WT cells
The experiment in a line: flow cytometry, liposomes on CT26.WT cells, 4 °C, 3 hrs.

The target in assay [8] is T2, mouse α5β1 integrin on CT26.WT cells. Briefly: flow cytometry, PR_b stealth liposomes on CT26.WT cells, 4 °C, 3 hrs. Background: A flow cytometer gives signals particle by particle.
Experimental: Tubes were incubated at 4° C. or 37° C. over a rotary shaker for the specified duration of time. Cells were then pelleted and washed twice in FB. Flow cytometric analysis was carried out immediately. For peptide blocking experiments, the protocol specified above was used except cells were incubated with 200 µg/ml of free peptide-amphiphile in FB for one hour prior to incubating the cells with the liposomes. […] All experiments were repeated twice but results are presented from a single experiment.

T2 sequence (P11688 45-1053, chain 1 of 2): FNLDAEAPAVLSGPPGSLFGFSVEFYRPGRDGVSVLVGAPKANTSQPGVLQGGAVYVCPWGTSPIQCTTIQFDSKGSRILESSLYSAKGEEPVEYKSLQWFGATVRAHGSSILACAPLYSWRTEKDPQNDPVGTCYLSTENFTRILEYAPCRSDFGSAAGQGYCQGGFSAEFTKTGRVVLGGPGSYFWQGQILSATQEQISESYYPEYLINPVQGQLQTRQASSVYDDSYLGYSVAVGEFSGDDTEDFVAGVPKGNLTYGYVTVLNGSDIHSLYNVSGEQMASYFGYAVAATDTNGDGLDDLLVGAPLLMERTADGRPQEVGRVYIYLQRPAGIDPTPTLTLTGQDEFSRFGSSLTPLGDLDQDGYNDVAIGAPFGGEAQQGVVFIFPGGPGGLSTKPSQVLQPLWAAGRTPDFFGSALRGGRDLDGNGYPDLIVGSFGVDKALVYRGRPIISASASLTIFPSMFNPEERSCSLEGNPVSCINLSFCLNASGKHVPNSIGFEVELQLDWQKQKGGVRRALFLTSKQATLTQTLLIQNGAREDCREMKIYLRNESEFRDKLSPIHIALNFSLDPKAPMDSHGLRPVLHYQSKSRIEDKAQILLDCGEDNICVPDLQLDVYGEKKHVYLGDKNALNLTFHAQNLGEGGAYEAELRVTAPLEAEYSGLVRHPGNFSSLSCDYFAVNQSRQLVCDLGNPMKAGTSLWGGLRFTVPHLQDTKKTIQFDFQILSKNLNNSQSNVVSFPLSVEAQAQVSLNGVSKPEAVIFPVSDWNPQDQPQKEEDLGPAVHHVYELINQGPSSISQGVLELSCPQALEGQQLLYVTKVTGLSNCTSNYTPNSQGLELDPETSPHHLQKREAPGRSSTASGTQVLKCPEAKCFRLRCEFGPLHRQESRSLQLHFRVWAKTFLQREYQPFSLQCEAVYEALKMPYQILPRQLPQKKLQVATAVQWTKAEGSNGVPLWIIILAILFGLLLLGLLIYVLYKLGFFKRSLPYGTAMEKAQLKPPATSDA
T2 sequence (P09055 21-798, chain 2 of 2): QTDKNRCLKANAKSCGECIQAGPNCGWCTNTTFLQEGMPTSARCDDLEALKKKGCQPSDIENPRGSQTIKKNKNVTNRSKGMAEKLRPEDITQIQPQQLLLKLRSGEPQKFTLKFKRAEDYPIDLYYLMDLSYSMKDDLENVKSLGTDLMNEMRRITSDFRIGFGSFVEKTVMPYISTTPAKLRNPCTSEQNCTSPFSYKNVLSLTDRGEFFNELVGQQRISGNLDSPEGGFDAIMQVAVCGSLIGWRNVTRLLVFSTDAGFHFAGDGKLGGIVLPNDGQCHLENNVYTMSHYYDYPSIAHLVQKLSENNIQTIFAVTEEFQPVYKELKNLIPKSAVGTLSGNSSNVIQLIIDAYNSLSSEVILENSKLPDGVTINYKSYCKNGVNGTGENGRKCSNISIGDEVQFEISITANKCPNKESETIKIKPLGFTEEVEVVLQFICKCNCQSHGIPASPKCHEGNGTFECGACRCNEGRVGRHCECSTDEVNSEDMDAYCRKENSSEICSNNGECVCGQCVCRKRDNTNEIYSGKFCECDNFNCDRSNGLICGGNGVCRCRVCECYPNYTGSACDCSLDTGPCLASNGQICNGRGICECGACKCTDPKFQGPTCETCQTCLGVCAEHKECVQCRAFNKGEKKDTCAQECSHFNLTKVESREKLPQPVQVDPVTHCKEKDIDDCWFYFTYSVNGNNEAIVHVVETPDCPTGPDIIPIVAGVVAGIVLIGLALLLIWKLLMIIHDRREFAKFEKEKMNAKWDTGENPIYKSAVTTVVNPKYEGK
T1 sequence (P06756 31-889 limits assumed): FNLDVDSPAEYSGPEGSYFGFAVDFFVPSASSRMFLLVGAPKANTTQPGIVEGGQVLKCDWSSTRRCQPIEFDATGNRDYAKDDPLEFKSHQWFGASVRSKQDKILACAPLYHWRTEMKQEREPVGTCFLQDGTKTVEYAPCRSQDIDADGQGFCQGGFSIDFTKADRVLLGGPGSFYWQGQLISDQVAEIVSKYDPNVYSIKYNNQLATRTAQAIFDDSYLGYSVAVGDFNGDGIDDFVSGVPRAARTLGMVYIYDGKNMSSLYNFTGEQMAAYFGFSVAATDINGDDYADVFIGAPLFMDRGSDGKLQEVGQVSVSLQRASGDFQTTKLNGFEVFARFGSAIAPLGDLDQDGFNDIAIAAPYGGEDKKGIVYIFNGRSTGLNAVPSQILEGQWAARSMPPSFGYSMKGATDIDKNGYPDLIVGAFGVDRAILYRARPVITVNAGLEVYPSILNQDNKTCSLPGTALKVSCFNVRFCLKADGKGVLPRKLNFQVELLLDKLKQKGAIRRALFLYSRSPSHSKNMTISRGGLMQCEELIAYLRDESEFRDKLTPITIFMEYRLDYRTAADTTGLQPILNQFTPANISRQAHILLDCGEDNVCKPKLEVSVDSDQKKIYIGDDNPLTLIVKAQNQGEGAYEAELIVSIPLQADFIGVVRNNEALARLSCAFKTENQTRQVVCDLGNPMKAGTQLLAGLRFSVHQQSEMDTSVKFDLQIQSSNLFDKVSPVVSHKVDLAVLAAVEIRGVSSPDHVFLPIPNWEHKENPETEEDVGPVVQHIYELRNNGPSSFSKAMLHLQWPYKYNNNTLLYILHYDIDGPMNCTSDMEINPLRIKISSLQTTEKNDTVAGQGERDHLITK
T1 sequence (P06756 891-1048 partner limits assumed): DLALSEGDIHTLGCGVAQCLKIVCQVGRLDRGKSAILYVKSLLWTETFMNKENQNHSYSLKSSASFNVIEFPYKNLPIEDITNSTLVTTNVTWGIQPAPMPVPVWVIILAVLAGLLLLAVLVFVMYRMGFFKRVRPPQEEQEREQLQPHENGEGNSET
T1 sequence (P05106 27-788): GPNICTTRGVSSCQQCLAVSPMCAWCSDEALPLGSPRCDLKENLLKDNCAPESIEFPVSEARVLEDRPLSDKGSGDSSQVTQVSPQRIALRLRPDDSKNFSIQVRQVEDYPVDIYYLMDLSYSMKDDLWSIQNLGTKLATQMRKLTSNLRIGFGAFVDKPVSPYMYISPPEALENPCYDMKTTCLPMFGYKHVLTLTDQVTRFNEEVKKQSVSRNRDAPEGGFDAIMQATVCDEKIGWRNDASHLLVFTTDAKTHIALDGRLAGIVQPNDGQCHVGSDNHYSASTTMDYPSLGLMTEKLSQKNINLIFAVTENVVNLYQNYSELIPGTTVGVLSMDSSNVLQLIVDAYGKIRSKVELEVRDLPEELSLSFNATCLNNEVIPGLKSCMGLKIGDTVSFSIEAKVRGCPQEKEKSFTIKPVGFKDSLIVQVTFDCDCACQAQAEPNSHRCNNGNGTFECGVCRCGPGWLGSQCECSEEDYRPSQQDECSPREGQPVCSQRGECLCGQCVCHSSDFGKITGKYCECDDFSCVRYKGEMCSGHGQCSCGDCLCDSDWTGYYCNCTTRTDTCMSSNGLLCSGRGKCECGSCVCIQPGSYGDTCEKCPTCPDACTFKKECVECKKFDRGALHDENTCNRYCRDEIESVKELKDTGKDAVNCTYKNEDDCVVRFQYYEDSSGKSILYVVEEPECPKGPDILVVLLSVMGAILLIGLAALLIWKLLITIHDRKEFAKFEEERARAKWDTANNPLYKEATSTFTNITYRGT
Experimental for integrin αvβ3: Adhesion blocking experiments: Blocking experiments were done using mouse anti-human integrin as (P1D6), β1 (P5D2), α5β1 (JBS5), and αvβ3 (LM609) monoclonal antibodies (Chemicon Int.). All surfaces were transferred to 24- or 12-well plates and pre-incubated in 0.1% BSA media as described above. HUVECs were prepared and counted as described in the cell adhesion protocol. Cells were blocked by mixing the cell suspension with the appropriate antibody in 0.1% BSA media, and incubating for 30 minutes at 37° C., 5% CO2 with constant agitation. Blocked cells were then released onto LB and FN surfaces and allowed to adhere for 1 hour at 37° C., 5% CO2. […] Following incubation, surfaces were washed, and adhered cells were quantified as described in the cell adhesion protocol.

(C16)2-Glu-C2-GRGDSP: in the assay on HUVECs [1], the “Fibronectin production by adhered HUVECs” value was “significantly less compared to FN and PR_b”; the “Fibronectin secretion by adhered HUVECs” value is listed as “minimal fibronectin secretion”. In addition, the “reduction in cell adhesion compared to adhesion of non-blocked cells” value with integrin αvβ3 came to 75.99±1.51%. Moreover, the “HUVEC spreading (cell area)” value with HUVECs [2] was “higher compared to GRGESP, but much smaller than FN”. In the assay on HUVECs [3], the “Focal adhesion contacts (vinculin)” value is recorded as “did not form strong focal adhesion contacts”; the “Actin fibers and focal adhesion points” value is given as “some actin fiber formation”. In addition, in the assay on HUVECs [3] (24 hours), the Actin organization result is recorded as “actin organization became less pronounced”. The “Ability of substrate to sustain HUVEC adhesion over time” value (from here on “Ability of substrate … over time”) in the assay with HUVECs [4] is “failed to sustain HUVEC adhesion after 48 hours; also recorded: failed to sustain cell adhesion after 48 hours”.
For the molecule “(C16)2-Glu-C2-GRGESP ({(C16)2‑Glu‑C2}-GRGESP) [negative control peptide-amphiphile]”, in the assay on HUVECs [1], the “Fibronectin production by adhered HUVECs” value was “significantly less compared to FN and PR_b”; the “Fibronectin secretion by adhered HUVECs” value is reported as “minimal fibronectin secretion”. The “HUVEC spreading (cell area)” value with HUVECs [2] is “smallest”. For the same molecule, in the assay with HUVECs [3], the “Actin fibers and focal adhesion points” value was “no distinct actin fibers and very few focal adhesion points”. Further, the “Ability of substrate … over time” value with HUVECs [4] is reported as “failed to sustain cell adhesion after 48 hours”.
On to “(C16)2-Glu-C2-PHSRNSGSGSGSGSGRGDSP ({(C16)2‑Glu‑C2}-PHSRNSGSGSGSGSGRGDSP) [Pr_e]”, for which, in the assay with HUVECs [5] (1, 4 and 12 hours), the “HUVEC adhesion compared with FN, overall” value is on record as “superior cell adhesion performance; also recorded: outperformed” and the “HUVEC adhesion compared with Pr_a, overall” value is “superior cell adhesion performance; also recorded: outperformed”. In addition, in the assay on HUVECs [5] (1 hour), the “HUVEC adhesion compared with FN” value was “higher HUVEC adhesion” and the “HUVEC adhesion compared with Pr_a” value is “higher HUVEC adhesion”. In addition, in the assay on HUVECs [5] (4 hours), the “HUVEC adhesion compared with FN” value is “higher adhesion than FN” and the “HUVEC adhesion compared with Pr_a” value is “no statistical difference”. In addition, in the assay with HUVECs [5] (12 hours), the “HUVEC adhesion compared with FN” value is given as “statistically higher than FN” and the “HUVEC adhesion compared with Pr_a” value is “not statistically different”.
For the molecule “(C16)2-Glu-C2-PHSRNSGSGSGSGRGDSP ({(C16)2‑Glu‑C2}-PHSRNSGSGSGSGRGDSP) [PR_a]”, the figures for the “HUVEC adhesion compared with FN” value in the assay with HUVECs [5] (1 hour), with HUVECs [5] (4 hours) and in the assay with HUVECs [5] (12 hours) were “no statistical difference”, “no difference in adhesion” and “statistically higher than FN”, respectively. In the assay on HUVECs [2], the “HUVEC spreading (cell area)” value is “mostly spread”. For the same molecule, the “HUVEC spreading, rank among surfaces” value in the assay with HUVECs [2] was “third”. Further, the “Ability of substrate … over time” value in the assay on HUVECs [4] is “effectively adhered”.
Consider “(C16)2-Glu-C2-KSSPHSRNSSSSSSSSSSRGDSP ({(C16)2‑Glu‑C2}-KSSPHSRNSSSSSSSSSSRGDSP) [Pr_d]”, for which the “HUVEC adhesion level (description)” value in the assay on HUVECs [5] (1, 4 and 12 hours) was “good adhesion out to 4 hours”. In addition, in the assay with HUVECs [5] (up to 12 hours), the “Maintenance / decay of HUVEC adhesion over time” value was “extreme drop-off at 12 hours”.
Turning to “FN: Human fibronectin-coated round coverslips (BD Biosciences), positive control”, in the assay on HUVECs [6], the “Fibronectin (ECM) production by adhered HUVECs” value is “allow both cell adhesion and ECM production; also recorded: allowed attached cells to produce fibronectin”. In the assay on HUVECs [1], the “Fibronectin secretion by adhered HUVECs” value is “fully covered with secreted fibronectin”. For the same molecule, in the assay on HUVECs [2], the “HUVEC spreading (cell area)” value is listed as “mostly spread” and the “HUVEC spreading, rank among surfaces” value is “second”. In the assay on HUVECs [3] (1-72 hours), the “Actin stress fibers and focal contacts” value was “displayed actin stress fibers and focal contacts”.

B1: GRGDSP peptide-amphiphile (C16)2-Glu-C2-KAbuGRGDSPAbuK (peptide)
peptide: {(C16)2‑Glu‑C2}-K[Abu]GRGDSP[Abu]K
notes: also called GRGDSP-targeted liposomes; GRGDSP-functionalized liposomes
Turning to B1, in [7], the binding result is recorded as “binds”.
In the case of {(C16)2‑Glu‑C2″}-KSSPHSRNSGSGSGSGSGRGDSP [PR_b peptide-amphiphile (C16)2-Glu-C2-KSSPHSRNSGSGSGSGSGRGDSP], the “reduction of binding against stealth liposomes with about 2.5 mol % PR_b” value in assay [8] amounted to 10 fold. Besides, in assay [7], the “increase of binding against 2.5 mol % GRGDSP low PEG2000 liposomes” value was around 100 fold.
